From US9895338B1, “Cobalt-polypyridyl complex for treatment of cancer, a pharmaceutical composition and a kit comprising it” (Macau University of Science and Technology, priority 2016, dated 2018)
Like-named read-outs stand apart in the source and are kept apart here.

How the values were obtained:
[1] = tested on: HeLa cells (cervical cancer); test: MTT cytotoxicity assay, HeLa; assay type: cell-based; settings: 72 h
Experimental: (§1) All prepared cobalt-polypyridyl complexes were dissolved in DMSO at a final concentration of 50 mmol/L and stored at −20° C. before use. Cytotoxicity was assessed by using the 3-(4,5-dimethylthiazol-2-yl)-2,5-diphenyltetrazolium bromide (MTT) (5.0 mg/ml) assay as previously described (Wong, V. K. et al., Cell Death Dis, 2013, 4, e720). Briefly, 4×10^3 cells per well were seeded in 96-well plates before drug treatments. After overnight culture, the cells were then exposed to different concentrations of selected compounds (0.039-100 μmol/L) for 72 h. Cells without drug treatment were used as control. Subsequently, MTT (10 μL) solution was added to each well and incubated at 37° C. for 4 h followed by the addition of 100 μL solubilization buffer (10% SDS in 0.01 mol/L HCl) and overnight incubation. A570 nm was then determined in each well on the next day. The percentage of cell viability was calculated using the following formula: Cell viability (%)=Atreated/Acontrol×100. Data were obtained from three independent experiments. Cells include HeLa cells (cervical cancer), MCF-7 (breast cancer), H1299, H1975, A549 and LLC-1 (lung cancer), HepG2 and Hep3B (liver cancer) and LO2 (normal human hepatocytes).

[2] = tested on: A549 (lung cancer); test: MTT cytotoxicity assay, A549; assay type: cell-based; settings: 72 h
Experimental: as §1

[3] = tested on: LLC-1 (lung cancer); test: MTT cytotoxicity assay, LLC-1; assay type: cell-based; settings: LLC-1, MTT, 72 h
Experimental: as §1

[4] = tested on: Hep 3B (liver cancer); test: MTT cytotoxicity assay, Hep3B; assay type: cell-based; settings: 72 h
Experimental: as §1

[5] = tested on: Taxol-sensitive MCF-7 cancer cells; test: MTT cytotoxicity, taxol-sensitive MCF-7; assay type: cell-based; settings: MCF-7, MTT, 72 h
Experimental: as §1, with “experiments.” for “experiments. Cells include HeLa cells (cervical cancer), MCF-7 (breast cancer), H1299, H1975, A549 and LLC-1 (lung cancer), HepG2 and Hep3B (liver cancer) and LO2 (normal human hepatocytes).”

[6] = tested on: Taxol-resistant MCF-7 cancer cells; test: MTT cytotoxicity, taxol-resistant MCF-7; assay type: cell-based
Experimental: as §1, with “experiments.” for “experiments. Cells include HeLa cells (cervical cancer), MCF-7 (breast cancer), H1299, H1975, A549 and LLC-1 (lung cancer), HepG2 and Hep3B (liver cancer) and LO2 (normal human hepatocytes).”
(§2) All cells were obtained from the American Type Culture Collection (Rockville, Md., USA) unless otherwise specified. Immortalized wild-type and Atg7-deficient mouse embryonic fibroblasts (MEFs) were provided by Professor Masaaki Komatsu (Juntendo University, School of Medicine, Japan). Taxol-resistant types of A549, MCF-7, HCT-8 cancer cells, cisplatin-resistant SGC7901 cancer cells were purchased from KeyGEN BioTECH, China.

[7] = tested on: Taxol-sensitive HCT8 cancer cells; test: MTT cytotoxicity, taxol-sensitive HCT8; assay type: cell-based; settings: 72 h
Experimental: as §1, with “experiments.” for “experiments. Cells include HeLa cells (cervical cancer), MCF-7 (breast cancer), H1299, H1975, A549 and LLC-1 (lung cancer), HepG2 and Hep3B (liver cancer) and LO2 (normal human hepatocytes).”

[8] = tested on: Taxol-resistant HCT8 cancer cells; test: MTT cytotoxicity, taxol-resistant HCT8; assay type: cell-based
Experimental: as §1, with “experiments.” for “experiments. Cells include HeLa cells (cervical cancer), MCF-7 (breast cancer), H1299, H1975, A549 and LLC-1 (lung cancer), HepG2 and Hep3B (liver cancer) and LO2 (normal human hepatocytes).”
as §2

[9] = tested on: Taxol-sensitive A549 cancer cells; test: MTT cytotoxicity, taxol-sensitive A549; assay type: cell-based; settings: 72 h
Experimental: as §1, with “experiments.” for “experiments. Cells include HeLa cells (cervical cancer), MCF-7 (breast cancer), H1299, H1975, A549 and LLC-1 (lung cancer), HepG2 and Hep3B (liver cancer) and LO2 (normal human hepatocytes).”

[10] = tested on: Taxol-resistant A549 cancer cells; test: MTT cytotoxicity, taxol-resistant A549; assay type: cell-based
Experimental: as §1, with “experiments.” for “experiments. Cells include HeLa cells (cervical cancer), MCF-7 (breast cancer), H1299, H1975, A549 and LLC-1 (lung cancer), HepG2 and Hep3B (liver cancer) and LO2 (normal human hepatocytes).”
as §2

[11] = tested on: cisplatin-sensitive A2780 ovarian cancer cells; test: MTT cytotoxicity, cisplatin-sensitive A2780; assay type: cell-based; settings: 72 h
Experimental: as §1, with “experiments.” for “experiments. Cells include HeLa cells (cervical cancer), MCF-7 (breast cancer), H1299, H1975, A549 and LLC-1 (lung cancer), HepG2 and Hep3B (liver cancer) and LO2 (normal human hepatocytes).”
(§3) Cisplatin-sensitive or -resistant A2780, OV2008 and C13 cancer cells were provided by Prof. Benjamin Tsang (Department of Obstetrics and Gynecology and Department of Cellular and Molecular Medicine, University of Ottawa, Canada). HCT116 p53^+/+ and p53^−/− isogenic human colon cancer cells were provided by Professor Bert Vogelstein (Ludwig Center at Johns Hopkins, Howard Hughes Medical Institute, USA). All media were supplemented with 10% fetal bovine serum and the antibiotics penicillin (50 U/ml) and streptomycin (50 μg/ml; Invitrogen, Paisley, Scotland, UK). All cell cultures were incubated at 37° C. in a 5% humidified CO2 incubator.

[12] = tested on: cisplatin-resistant A2780 ovarian cancer cells; test: MTT cytotoxicity, cisplatin-resistant A2780; assay type: cell-based
Experimental: as §1, with “experiments.” for “experiments. Cells include HeLa cells (cervical cancer), MCF-7 (breast cancer), H1299, H1975, A549 and LLC-1 (lung cancer), HepG2 and Hep3B (liver cancer) and LO2 (normal human hepatocytes).”
as §3

[13] = tested on: OV2008 cervical cancer cells; test: MTT cytotoxicity, OV2008 (cisplatin-sensitive); assay type: cell-based; settings: 72 h
Experimental: as §1, with “experiments.” for “experiments. Cells include HeLa cells (cervical cancer), MCF-7 (breast cancer), H1299, H1975, A549 and LLC-1 (lung cancer), HepG2 and Hep3B (liver cancer) and LO2 (normal human hepatocytes).”
as §3

[14] = tested on: HCT116 p53^−/− colon cancer cells; test: MTT cytotoxicity, HCT116 p53-/-; assay type: cell-based, human
Experimental: as §1, with “experiments.” for “experiments. Cells include HeLa cells (cervical cancer), MCF-7 (breast cancer), H1299, H1975, A549 and LLC-1 (lung cancer), HepG2 and Hep3B (liver cancer) and LO2 (normal human hepatocytes).”
as §3

[15] = tested on: HeLa cancer cells
Experimental: For cell cycle analysis, the cells were harvested and washed with ice-cold phosphate-buffered saline (PBS), and then suspended and permeabilized with 70% ethanol for overnight at 4° C. For detecting DNA content and cell cycle, cells were incubated with the freshly prepared propidium iodide (PI) staining buffer for 30 min at room temperature in dark. Fractions of the cells in G1, S, and G2/M phase were analyzed using Modfit software 3.1.
To investigate whether the cobalt-polypyridyl complexes could suppress cancer cell growth by arresting cell cycle progression, HeLa cancer cells were treated with different concentrations of the cobalt-polypyridyl complex of Formula (IV) (with PF6^− as counterion).

[16] = tested on: human H1299 lung cancer cells; settings: H1299, sub-lethal doses 0.2, 0.5, 1.0 μM
Experimental: The cancer cell invasion assay was performed in a Cell Invasion Chamber, a 24-well tissue culture plate with cell culture inserts that contain an […] pore size polycarbonate membrane over a thin layer of dried ECMatrix™ (CHEMICON).
To determine the inhibitory effect of cobalt-polypyridyl complexes of the present invention in cancer cell invasion, human H1299 lung cancer cells with well-known cell invasion ability were treated with the cobalt-polypyridyl complex of Formula (IV) in its sub-lethal (non-toxic) doses.

Work on `Cc1ccnc(-c2cc(C)ccn2)c1.Cc1ccnc(-c2cc(C)ccn2)c1.Cc1ccnc(-c2cc(C)ccn2)c1.F[P-](F)(F)(F)(F)F.F[P-](F)(F)(F)(F)F.F[P-](F)(F)(F)(F)F.[Co+3]` [complex (IV), [Co^III(4,4′-Me2-Bpy)3.](PF6)3] yielded an IC50 [1] of 11.9 µM, an IC50 [2] of 7.86 µM and an IC50 [3] of 3.39 µM. It also gave an IC50 [4] of 3.7 µM, an IC50 [5] of 4 µM and an IC50 ([6]; MCF-7, MTT, 72 h) of 2.71 µM. For the same compound, the “Resistant Factor” value ([6]; MCF-7, IC50 taxol-resistant over IC50 taxol-sensitive) was 0.68, the IC50 [7] was 3.39 µM and the IC50 ([8]; HCT8, MTT, 72 h) was 1.22 µM. For the same compound, the “Resistant Factor” value ([8]; HCT8, IC50 taxol-resistant over IC50 taxol-sensitive) was 0.36, the IC50 [9] was 11.5 µM and the IC50 ([10]; A549, MTT, 72 h) was 2.85 µM. The “Resistant Factor” value ([10]; A549, IC50 taxol-resistant over IC50 taxol-sensitive) was 0.25, the IC50 [11] was 12.3 µM and the IC50 ([12]; A2780, MTT, 72 h) was 10.7 µM. The “Resistant Factor” value ([12]; A2780, cisplatin-resistant over cisplatin-sensitive) was 0.87, the IC50 [13] was 7.62 µM and the “Resistant Factor” value ([14]; HCT116 p53^−/− over HCT116 p53^+/+) was 0.59. The IC50 ([14]; MTT, 72 h) was 9.07 µM, the “effect on cell cycle progression” value ([15]; high concentration) was “arrest HeLa cancer cell in S-phase” and the “effect on cell cycle progression” value ([15]; low concentration) was “negligible effect on cell cycle progression”. The “cell invasion (fluorescence signal of invaded cells)” value [16] was “dose-dependently decrease the cell fluorescence signal”.
